Assay [1] deals with human telomerase (“TRT”). In words: Semi-quantitative RT-PCR of telomerase (TRT) gene expression. Type of assay: cell-based. The note with it: NUCREM cells subsequently treated with 1-2 μM retinoic acid, day five (treatment regimen 3). On the procedure: 5-aza-2′-deoxycytidine (Sigma, St. Louis) was added at a concentration of 10-25 μM to cultures of human adult keratinocytes that were approximately 40% to 80% confluent. These cultures were further incubated for approximately four (4) days at 37° C. in an atmosphere of 5-10% CO2. After four days in the presence of 5-aza-2′-deoxycytidine, trichostatin A (Sigma, St. Louis) was added to the cultures at a concentration of 100-250 ng/ml. Cultures were further incubated for approximately one (1) day, as described above. RNA was extracted from some of the aliquots of cultures at this point (treatment regimen 1) for subsequent RT-PCR analysis. Other aliquots of cultures were subsequently treated as follows. […]
(§1) RT-PCR was performed using the QIAGEN® OneStep RT-PCR Kit (Qiagen Inc., Valencia, Calif.) according to the manufacturer's instructions. […] To control for the quality of the extracted RNA and to serve as an internal quantification marker, human glyceraldehyde 3-phosphate dehydrogenase (“GAPDH”) oligonucleotide primers were included in the RT-PCR reaction.
(§2) The RT-PCR products were run out on a 2% agarose gel, which was then stained with ethidium bromide. The intensity of the resultant DNA bands were quantified using the PHORETIX™ TotalLab densitometry software package developed by Nonlinear USA (Durham, N.C.). […]

The test system of assay [2] is in vitro derived adult pluripotent stem cells (“NUCREM™ cells”). In words: Retinoic acid induced differentiation of in vitro derived adult pluripotent stem cells (morphology). The note with it: approximately 1-2 μM retinoic acid, day five. Format: cell-based, human. The method, then: Subsequent to cyclin B treatment, the cultures of in vitro derived adult pluripotent stem cells were cultured in the presence of approximately 1-2 μM retinoic acid (“RA”) (Sigma, St. Louis) for five (5) to 10 days. […] By day five (5) of retinoic acid treatment, approximately 50% of the cells in culture attained a neuron-like morphology (FIG. 1). At day five of RA treatment (treatment regimen 3), RNA was extracted from the cultures for RT-PCR analysis.

In assay [3] the test system is cardiac actin (“cACT”). Put plainly: Semi-quantitative RT-PCR of cardiac actin (cACT) gene expression. Particulars: NUCREM cells treated with 1-2 μM retinoic acid, day five (treatment regimen 3); ±118% SEM, three experiments. Format: cell-based, human. The method, then:
(§3) Subsequent to cyclin B treatment, the cultures of in vitro derived adult pluripotent stem cells were cultured in the presence of approximately 1-2 μM retinoic acid (“RA”) (Sigma, St. Louis) for five (5) to 10 days. […] By day five (5) of retinoic acid treatment, approximately 50% of the cells in culture attained a neuron-like morphology (FIG. 1). At day five of RA treatment (treatment regimen 3), RNA was extracted from the cultures for RT-PCR analysis. […]
as §1, §2

In assay [4] the test system is α1-antitrypsin (“αAT”). Put plainly: Semi-quantitative RT-PCR of α1-antitrypsin (αAT) gene expression. Type of assay: cell-based, human. Particulars: NUCREM cells treated with 1-2 μM retinoic acid, day five (treatment regimen 3); ±94% SEM, three experiments. On the procedure: as §3, §1, §2
Assay [5] relates to neurofilament heavy chain (“NF”). Put plainly: Semi-quantitative RT-PCR of neurofilament heavy chain (NF) gene expression. Type of assay: cell-based, human. Particulars: NUCREM cells treated with 1-2 μM retinoic acid, day five (treatment regimen 3); ±45% SEM, three experiments. The method, then: as §3, §1, §2

Take `CC1=C(/C=C/C(C)=C/C=C/C(C)=C/C(=O)O)C(C)(C)CCC1` [retinoic acid]: the “decrease in levels of expression of TRT” value in assay [1] is “approximately 50%”. Also, the “cells in culture that attained a neuron-like morphology” value in assay [2] is “approximately 50%”. Besides, in assay [3], the “increase in levels of expression of cACT relative to untreated keratinocytes” value is on record as 667%. In addition, the “increase in levels of expression of αAT relative to untreated keratinocytes” value in assay [4] is on record as 343%. Also, in assay [5], the “increase in levels of expression of NF relative to untreated keratinocytes” value was determined as 89%.

The record behind these values is US20040120932A1, “In vitro-derived adult pluripotent stem cells and uses therefor” (priority 2000, published 2004).
